Measurements published in US20230404972A1, “INHIBITION OF CASPASE PATHWAY AS A TREATMENT FOR LYSOSOMAL STORAGE DISORDERS” (Lysosomal and Rare Disorders Research and Treatment Center, …, priority 2020, published 2023).

What was measured:
IL-1 beta = IL-1 beta ELISA of PBMC cell culture supernatant; type: cell-based, human; details: PBMCs from LSD patients, 1 uM, 6 hr, relative to untreated PBMCs
Procedure: (§1) PBMCs are extracted from 3-5 ml peripheral blood using Ficoll-Paque (GE health care). 2-4 ml of whole blood is diluted 1:2 using Phosphate buffered saline (PBS) containing 2% fetal bovine serum (FBS) and overlayed onto Ficoll solution in 15 ml leucosep tube. The tubes are centrifuged at 2000 g for 10 minutes with no brakes. The layer containing PBMCs is transferred into a fresh 15 ml tube and washed with PBS+2% FBS. The cells are then resuspended in RPMI+10% FBS. The cells were then counted using heniocytometer and plated into 96 well plates and set at 37° C. incubator with 5% CO2. […]
(§2) Caspase-1, IL-1 beta and IL-18 were quantified as a measure of capase-1 activity. CCL18 and chitotriosidase were measured as to indicate macrophage activation and reflect clinical outcomes. ELISAs were performed as per manufacturer's protocols to quantify the following cytokines: 1) Caspase 1 (Therrnofisher Scientific, Waltham, MA, USA), 2) IL-1 beta, 3) IL-18 (Abcam, Cambridge, MA, USA), 4) CCL-18 cytokines-1 (Themofisher scientific, Waltham, MA, USA). […]
(§3) Caspase-1 mediated inflammasome cleaves pro-IL-1 beta and pro-IL-18 into active forms II-1 beta and IL-18 which are secreted from the cells. […] Relative decrease for each sample was calculated as relative to untreated PBMCs (FIG. 3A and 3B). […]

CCL18 = CCL18 ELISA of PBMC cell culture supernatant; type: cell-based, human; details: PBMCs from LSD patients, 1 μM, 6 hr, with vs without treatment
IL-18 = IL-18 ELISA of PBMC cell culture supernatant; type: cell-based, human; details: PBMCs from LSD patients, 1 uM, 6 hr, relative to untreated PBMCs
Procedure: as §1, §2, §3

Chitotriosidase = Chitotriosidase assay (4-Methylumbelliferone chitotrioside substrate) of PBMC cell culture supernatant; type: cell-based, human; details: PBMCs from LSD patients, 1 μM, 6 hr, with vs without treatment
Caspase 1 = target: T1, Caspase 1 (Homo sapiens, UniProt P29466); assay: Caspase-Glo 1 inflammasome assay in PBMCs from LSD patients; type: cell-based; details: 1 μM, 6 hr, vs untreated PBMCs
T1 construct: Caspase 1 activity within the PBMCs; endogenous in cells; host or cells: primary PBMCs from LSD patients
T1 sequence (P29466 120-297 limits assumed): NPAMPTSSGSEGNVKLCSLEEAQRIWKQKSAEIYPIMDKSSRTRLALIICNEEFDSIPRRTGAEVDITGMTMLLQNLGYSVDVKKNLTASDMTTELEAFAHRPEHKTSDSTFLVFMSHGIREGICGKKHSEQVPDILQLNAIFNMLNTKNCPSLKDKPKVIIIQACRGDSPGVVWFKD
T1 sequence (P29466 317-404 limits assumed): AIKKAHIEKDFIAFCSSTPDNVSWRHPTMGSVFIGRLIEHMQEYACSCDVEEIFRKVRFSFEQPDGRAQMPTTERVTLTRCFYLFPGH
Procedure: PBMCs are extracted from 3-5 ml peripheral blood using Ficoll-Paque (GE health care). 2-4 ml of whole blood is diluted 1:2 using Phosphate buffered saline (PBS) containing 2% fetal bovine serum (FBS) and overlayed onto Ficoll solution in 15 ml leucosep tube. The tubes are centrifuged at 2000 g for 10 minutes with no brakes. The layer containing PBMCs is transferred into a fresh 15 ml tube and washed with PBS+2% FBS. The cells are then resuspended in RPMI+10% FBS. The cells were then counted using heniocytometer and plated into 96 well plates and set at 37° C. incubator with 5% CO2.
The pan-caspase inhibitor, Emricasan (Sigma-Aldrich, Inc., St. Louis, MO, USA), was added to the PBMCs in 96-well plates to a final concentration of 1 μM. After 6 hr of Emricasan treatment, the cells were divided into two groups and used for 1) measurement of Caspase 1 activity within the PBMCs using Caspase-Glo 1 inflammasome assay (Promega, Madison, WI, USA), and 2) the supernatant was collected after centrifuging at 3000 rpm for 5 min to perform ELISA assays for cytokines: IL-1 beta and IL-18 as well as macrophage activation markers: Chitotriosidase and CCL18. […]
as §3

`C[C@H](NC(=O)C(=O)Nc1ccccc1C(C)(C)C)C(=O)N[C@@H](CC(=O)O)C(=O)COc1c(F)c(F)cc(F)c1F` [Emricasan, (3S)-3-({N-[{[2-(2-Methyl-2-propanyl)phenyl]amino}(oxo)acetyl]alanyl}amino)-4-oxo-5-(2,3,5,6-tetrafluorophenoxy) pentanoic acid] was tested, and the “secreted IL-1 beta in the cell culture supernatant” value (IL-1 beta) was “significant decrease”, the “production of CCL18 (macrophage activation biomarker) in cell culture medium” value (CCL18) was “significant decrease” and the “secreted IL-18 in the cell culture supernatant” value (IL-18) was “significant decrease”. The “production of chitotriosidase (macrophage activation biomarker) in cell culture medium” value (Chitotriosidase) was “significant decrease” and the “Caspase 1 activity within the PBMCs” value (Caspase 1) was “reduced”.
